Results: patent US20150174095A1, “PHARMACEUTICAL COMPOSITIONS FOR THE TREATMENT OF VISUAL SYSTEM DISORDERS” (Allergan, Inc., priority 2013, published 2015)

What was measured:
[1] = target: T1, human ASCT1 (Homo sapiens, UniProt P43007); test: [3H]L-serine transport into HEK cells expressing recombinant human ASCT1; assay type: cell-based; settings: inhibition of [3H]L-serine transport, HEK cells with human ASCT1, n of 3-4; read-out: HEK1A4 ASCT1 IC50
T1 construct: expressed in transfected cells; host or cells: HEK293 cells stably expressing ASCT1
T1 sequence (P43007 1-532): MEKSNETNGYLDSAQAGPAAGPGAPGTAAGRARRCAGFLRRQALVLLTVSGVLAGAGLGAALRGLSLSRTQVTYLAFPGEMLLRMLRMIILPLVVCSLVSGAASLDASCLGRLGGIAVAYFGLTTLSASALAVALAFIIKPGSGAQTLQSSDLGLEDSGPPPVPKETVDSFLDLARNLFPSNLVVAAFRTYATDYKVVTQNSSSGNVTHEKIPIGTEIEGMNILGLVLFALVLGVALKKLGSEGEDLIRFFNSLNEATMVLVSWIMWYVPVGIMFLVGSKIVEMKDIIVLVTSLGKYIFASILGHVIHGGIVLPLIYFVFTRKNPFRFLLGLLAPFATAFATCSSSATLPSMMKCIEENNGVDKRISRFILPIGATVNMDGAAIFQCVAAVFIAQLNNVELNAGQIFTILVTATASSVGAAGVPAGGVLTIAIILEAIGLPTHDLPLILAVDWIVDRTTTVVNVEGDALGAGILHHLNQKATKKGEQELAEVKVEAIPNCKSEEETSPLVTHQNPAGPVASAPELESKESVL
Procedure: (§1) Cell-based assays: the transport of [^3H]L- or D-serine was measured in primary cultures of rat hippocampal astrocytes or in human embryonic kidney (HEK) cells expressing ASCT transporter sub-types. For the astrocyte assays, cells were plated on either 24- or 96-well plates at a density of 50,000 cells per well. For the HEK assays, cells were plated on coated 96-well plates at a density of 80,000 cells/well. Assays were conducted in duplicate at room temperature in assay buffer consisting of: NaCl: 150 mM, KCl: 2 mM; MgCl2: 1 mM; CaCl2: 1 mM; HEPES: Tris buffer: 10 mM, pH7.4. To assess the sodium-dependence of transport, NaCl was replaced in the assay buffer by equimolar choline chloride. Following aspiration of growth medium and 2 washes with assay buffer, cells were incubated with [^3H]L- or D-serine at a final concentration of 1 μM for 5 min (astrocytes) or 1 min (HEK cells), after which the incubation medium was aspirated and the cells washed twice with ice-cold assay buffer. Cells containing radiolabel were solubilized in 100 μl of 1% Triton-X100 and an aliquot counted in a beta counter. IC50 values were determined over a range of at least 6 concentrations and derived from curve-fitting algorithms available in GraphPad Prism 4. Table 2 reflects the IC50 values for the inhibition of [^3H]L-serine transport into astrocytes and HEK cells expressing recombinant human ASCT1 or ASCT2. […]

[2] = target: T1, human ASCT1; test: Whole cell patch-clamp transport currents in HEK cells expressing human ASCT1; assay type: cell-based; settings: for effect on substrate-evoked inward current: HEK ASCT1, with 0.3 mM L-serine; for current in the absence of applied substrate: HEK ASCT1, without L-serine
Procedure: (§2) Patch-Clamp Recording in HEK 293 Cells (FIGS. 1A, 1B, 2A and 2B):
(§3) Transport currents were recorded in human embryonic kidney (HEK) cells expressing human ASCT1 or ASCT2 transporter using whole cell patch-clamp. Extracellular solution contains: 140 mM NaCl, 2.0 mM MgCl2, 2.0 CaCl2, 10 mM HEPES, pH 7.4. The recording pipettes were filled with ICM containing: 130 mM NaSCN, 10 mM EGTA, 2 mM MgCl2, 10 mM HEPES, 10 mM L-alanine pH 7.3. The inhibitory effects of compounds were measured without/with 300 μM L-serine and normalized to these by 4-hydroxy-phenyglycine (100%).

[3] = test system: ASCT1/2; test: [3H]L-serine transport into primary rat hippocampal astrocytes; assay type: cell-based; settings: for IC50: inhibition of [3H]L-serine transport, rat astrocytes, 6-12 point curves, n of 3-4, read-out: Astro ASCT1/2 IC50; for inhibition of radiolabelled substrate transport: rat brain astrocytes in culture
Procedure: Cell-based assays: the transport of [^3H]L- or D-serine was measured in primary cultures of rat hippocampal astrocytes or in human embryonic kidney (HEK) cells expressing ASCT transporter sub-types. For the astrocyte assays, cells were plated on either 24- or 96-well plates at a density of 50,000 cells per well. For the HEK assays, cells were plated on coated 96-well plates at a density of 80,000 cells/well. Assays were conducted in duplicate at room temperature in assay buffer consisting of: NaCl: 150 mM, KCl: 2 mM; MgCl2: 1 mM; CaCl2: 1 mM; HEPES: Tris buffer: 10 mM, pH7.4. To assess the sodium-dependence of transport, NaCl was replaced in the assay buffer by equimolar choline chloride. Following aspiration of growth medium and 2 washes with assay buffer, cells were incubated with [^3H]L- or D-serine at a final concentration of 1 μM for 5 min (astrocytes) or 1 min (HEK cells), after which the incubation medium was aspirated and the cells washed twice with ice-cold assay buffer. Cells containing radiolabel were solubilized in 100 μl of 1% Triton-X100 and an aliquot counted in a beta counter. IC50 values were determined over a range of at least 6 concentrations and derived from curve-fitting algorithms available in GraphPad Prism 4. Table 2 reflects the IC50 values for the inhibition of [^3H]L-serine transport into astrocytes and HEK cells expressing recombinant human ASCT1 or ASCT2. Values are IC50's in μM from 6-12 point inhibition curves, with an n of 3-4.

[4] = target: T2, human ASCT2 (Homo sapiens, UniProt Q15758); test: Whole cell patch-clamp transport currents in HEK cells expressing human ASCT2; assay type: cell-based; settings: for effect on substrate-evoked inward current: HEK ASCT2, with 0.3 mM L-serine; for current in the absence of applied substrate: HEK ASCT2, without L-serine
T2 construct: expressed in transfected cells; host or cells: HEK293 cells stably expressing ASCT2
T2 sequence (Q15758 1-541): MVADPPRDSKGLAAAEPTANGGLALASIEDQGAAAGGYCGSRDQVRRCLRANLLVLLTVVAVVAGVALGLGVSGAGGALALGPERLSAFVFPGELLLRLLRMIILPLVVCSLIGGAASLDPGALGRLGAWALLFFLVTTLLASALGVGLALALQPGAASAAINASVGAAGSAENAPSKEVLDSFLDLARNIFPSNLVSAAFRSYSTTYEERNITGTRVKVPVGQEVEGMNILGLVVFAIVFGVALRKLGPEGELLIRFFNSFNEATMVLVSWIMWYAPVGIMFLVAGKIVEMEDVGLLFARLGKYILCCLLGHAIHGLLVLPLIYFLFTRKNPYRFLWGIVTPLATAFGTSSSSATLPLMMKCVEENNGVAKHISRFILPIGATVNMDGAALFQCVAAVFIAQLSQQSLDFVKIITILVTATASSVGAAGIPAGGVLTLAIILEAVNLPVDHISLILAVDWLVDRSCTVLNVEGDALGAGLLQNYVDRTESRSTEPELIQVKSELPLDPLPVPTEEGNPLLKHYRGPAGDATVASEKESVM
Procedure: as §2, §3

[5] = target: T2, human ASCT2; test: [3H]L-serine transport into HEK cells expressing recombinant human ASCT2; assay type: cell-based; settings: inhibition of [3H]L-serine transport, HEK cells with human ASCT2, n of 3-4; read-out: HEK1A5 ASCT2 IC50
Procedure: as §1

[6] = test system: LTP in primary visual cortex; test: Visual cortex slice physiology: long-term potentiation (LTP); set-up: species or system rat
Procedure: Following decapitation of the rat, the brain was rapidly removed and immersed in ice-cold artificial cerebrospinal fluid (ACSF) containing 124 mM NaCl, 3 mM KCl, 1.25 mM KH2PO4, 3.4 mM CaCl2, 2.5 mM MgSO4, 26 mM NaHCO3, and 10 mM D-glucose. A block of visual cortex was created by removing the frontal ⅔ portion of the brain and the cerebellum. Coronal visual cortex slices of 375 μm were prepared from adult Sprague Dawley (SD) rats using a vibratome (VT 1000 S; Leica). The slices were maintained in an interface recording chamber perfused with preheated ACSF. Slices were continuously perfused with this solution at a rate of 1.00-1.50 ml/min while the surface of the slices was exposed to warm, humidified 95% O2/5% CO2 and maintained at 31±1° C. Visual cortex slices were allowed to recover for 1 hr before recording began. A single stimulating and recording electrode were placed in layer IV and III, respectively, to generate and record a field excitatory postsynaptic potentials (fEPSPs). […] This was repeated 2 additional times with a 1 minute intertrain interval, and the level of LTP was recorded for at least 30 min. Changes in amplitude of the synaptic response were used to measure the extent of LTP because it was determined to be the more consistent parameter than the slope of the response. […]

In the case of O=C(O)[C@@H]1NC[C@H](OCc2cccc(Oc3ccccc3)c2)[C@H]1O (stereo in doubt) [(2R,3S,4S)-3-hydroxy-4-[(3-phenoxybenzyl)oxy]pyrrolidine-2-carboxylic acid], the IC50 [1] is reported as 46.4 µM, the “effect on substrate-evoked inward current” value [2] is reported as “inhibited the substrate-evoked inward current” and the “current in the absence of applied substrate” value (“current in the absence” below) [2] is reported as “evoked an outward current”. The IC50 [3] was 10.7 µM, the “inhibition of radiolabelled substrate transport” value [3] was “completely inhibited” and the “effect on substrate-evoked inward current” value [4] was “inhibited the substrate-evoked inward current”. For the same compound, the “current in the absence” value [4] was “evoked an outward current” and the IC50 [5] was 65.2 µM.
For O=C(O)[C@@H]1NC[C@H](OCc2ccc(-c3ccccc3)cc2)[C@H]1O (stereo in doubt) [(2R,3S,4S)-4-(biphenyl-4-ylmethoxy)-3-hydroxypyrrolidine-2-carboxylic acid], the IC50 [1] was 3.6 µM, the “effect on substrate-evoked inward current” value [2] was “inhibited the substrate-evoked inward current” and the “current in the absence” value [2] was “evoked an outward current”. For the same compound, the IC50 [3] was 0.6 µM, the “inhibition of radiolabelled substrate transport” value [3] was “completely inhibited” and the “effect on substrate-evoked inward current” value [4] was “inhibited the substrate-evoked inward current”. For the same compound, the “current in the absence” value [4] was “evoked an outward current”, the IC50 [5] was 2.8 µM and the “effect on LTP in rat visual cortex slice” value ([6]; 0.1 and 0.3 μM) was “dose-dependently facilitates long-term potentiation (LTP)”. For the same compound, the “concentration that enhanced LTP in visual cortex” value ([6]; rat visual cortex slice, as low as) was ≤ 0.1 µM.
